Each structure is given as a SMILES string. pIC50: −log10 of the molar value.

The target in the test is T1, ERK5 (Homo sapiens, UniProt Q13164).
T1 construct: made in house
T1 sequence (Q13164 whole entry): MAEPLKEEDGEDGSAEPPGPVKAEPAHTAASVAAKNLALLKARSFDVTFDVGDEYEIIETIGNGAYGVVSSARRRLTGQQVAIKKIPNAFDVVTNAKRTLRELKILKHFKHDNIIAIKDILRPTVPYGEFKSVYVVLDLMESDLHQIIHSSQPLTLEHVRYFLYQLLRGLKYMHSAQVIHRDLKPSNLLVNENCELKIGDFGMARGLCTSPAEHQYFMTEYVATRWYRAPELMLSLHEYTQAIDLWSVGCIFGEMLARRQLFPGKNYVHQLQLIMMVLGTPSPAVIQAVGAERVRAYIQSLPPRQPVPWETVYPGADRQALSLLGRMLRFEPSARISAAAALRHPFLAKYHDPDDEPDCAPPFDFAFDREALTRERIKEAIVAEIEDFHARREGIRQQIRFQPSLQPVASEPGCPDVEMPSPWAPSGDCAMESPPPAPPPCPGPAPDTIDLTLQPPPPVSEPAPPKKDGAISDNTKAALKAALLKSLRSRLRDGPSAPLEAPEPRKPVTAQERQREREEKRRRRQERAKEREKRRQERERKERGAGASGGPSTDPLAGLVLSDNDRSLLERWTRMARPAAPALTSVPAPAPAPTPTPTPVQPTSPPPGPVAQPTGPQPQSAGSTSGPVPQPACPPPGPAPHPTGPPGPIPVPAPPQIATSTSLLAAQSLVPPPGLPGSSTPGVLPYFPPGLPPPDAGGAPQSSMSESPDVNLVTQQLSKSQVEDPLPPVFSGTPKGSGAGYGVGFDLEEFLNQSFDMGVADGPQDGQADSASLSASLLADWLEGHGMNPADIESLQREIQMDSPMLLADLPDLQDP
Nature of the test: ERK5 IMAP assay (fluorescence polarisation). Type of test: biochemical. To be noted: average (e.g. geometric mean) where more than one data point; read-out: ERK5 IC50.
In general, pIC50 refers to −log10 of the IC50, conventionally taken in molar units. `COc1ccc(Cl)c(C(=O)c2c[nH]c(C(=O)Nc3ccc(CC4CCNCC4)nc3)c2)c1F` [Example 117, 4-(6-Chloro-2-fluoro-3-methoxybenzoyl)-N-(6-(piperidin-4-ylmethyl)pyridin-3-yl)-1H-pyrrole-2-carboxamide]: the pIC50 was 8.04.
Next, `O=C(NC1CCOCC1)c1cc(C(=O)c2c(F)cccc2Cl)c[nH]1` [Example 194, 4-(2-Chloro-6-fluorobenzoyl)-N-(tetrahydro-2H-pyran-4-yl)-1H-pyrrole-2-carboxamide]: 6.07; `CCN(CC)CCn1cc(NC(=O)c2cc(C(=O)c3c(Cl)ccc(Cl)c3F)c[nH]2)cn1` [Example 43, 4-(3,6-Dichloro-2-fluorobenzoyl)-N-(1-(2-(diethylamino)ethyl)-1H-pyrazol-4-yl)-1H-pyrrole-2-carboxamide]: 6.68; `CN1CCC(NC(=O)c2cc(C(=O)c3c(F)ccc(Cl)c3Cl)c[nH]2)CC1` [Example 171, 4-(2,3-Dichloro-6-fluorobenzoyl)-N-(1-methylpiperidin-4-yl)-1H-pyrrole-2-carboxamide]: 6.55.
Next, `COc1ncccc1NC(=O)c1cc(C(=O)c2c(Cl)ccc(Cl)c2F)c[nH]1` [Example 84, 4-(3,6-Dichloro-2-fluorobenzoyl)-N-(2-methoxypyridin-3-yl)-1H-pyrrole-2-carboxamide]: 5.93; `CN1CCC(NC(=O)c2cc(C(=O)c3cc(Cl)ccc3F)c[nH]2)CC1` [Example 231, 4-(5-Chloro-2-fluorobenzoyl)-N-(1-methylpiperidin-4-yl)-1H-pyrrole-2-carboxamide]: 5.71; `Cc1ccc(Cl)c(C(=O)c2c[nH]c(C(=O)Nc3cncnc3)c2)c1F` [Example 179, 4-(6-Chloro-2-fluoro-3-methylbenzoyl)-N-(pyrimidin-5-yl)-1H-pyrrole-2-carboxamide]: 6.58.
With `COCCn1cc(NC(=O)c2cc(C(=O)c3c(Cl)ccc(Cl)c3F)c[nH]2)cn1` [Example 47, 4-(3,6-Dichloro-2-fluorobenzoyl)-N-(1-(2-methoxyethyl)-1H-pyrazol-4-yl)-1H-pyrrole-2-carboxamide], the pIC50 was 7.12.
`CN1CCC(NC(=O)c2cc(C(=O)c3c(Cl)ccc(Cl)c3F)c[nH]2)CC1` [Example 174, 4-(3,6-dichloro-2-fluorobenzoyl)-N-(1-methylpiperidin-4-yl)-1H-pyrrole-2-carboxamide]: the pIC50 is 6.94.
Consider `Cn1cc(NC(=O)c2cc(C(=O)c3c(Cl)ccc(OC4COC4)c3F)c[nH]2)cn1` [Example 273, 4-(6-Chloro-2-fluoro-3-(oxetan-3-yloxy)benzoyl)-N-(1-methyl-1H-pyrazol-4-yl)-1H-pyrrole-2-carboxamide], for which the pIC50 was 7.23.
Next, `O=C(Nc1cc[n+]([O-])cc1)c1cc(C(=O)c2c(F)cccc2F)c[nH]1` [Example 127, 4-(4-(2,6-Difluorobenzoyl)-1H-pyrrole-2-carboxamido)pyridine 1-oxide]: 4.94; `O=C(Nc1cccnc1)c1cc(C(=O)c2c(F)ccc(C(=O)O)c2F)c[nH]1` [Example 266, 2,4-difluoro-3-(5-(pyridin-3-ylcarbamoyl)-1H-pyrrole-3-carbonyl) benzoic Acid]: 5.71.
In the case of `Cc1ccc(F)c(C(=O)c2c[nH]c(C(=O)NC3CCN(C)CC3)c2)c1Cl` [Example 177, 4-(2-Chloro-6-fluoro-3-methylbenzoyl)-N-(1-methylpiperidin-4-yl)-1H-pyrrole-2-carboxamide] it was 6.33; in that of `Cc1ccc(F)c(C(=O)c2c[nH]c(C(=O)Nc3cncnc3)c2)c1Cl` [Example 176, 4-(2-Chloro-6-fluoro-3-methylbenzoyl)-N-(pyrimidin-5-yl)-1H-pyrrole-2-carboxamide], 5.93; in that of `O=C(Nc1cccnc1N1CCCC1)c1cc(C(=O)c2c(Cl)ccc(Cl)c2F)c[nH]1` [Example 86, 4-(3,6-Dichloro-2-fluorobenzoyl)-N-(2-(pyrrolidin-1-yl)pyridin-3-yl)-1H-pyrrole-2-carboxamide], 4.91.
As for `Cn1ccnc1Cn1cc(NC(=O)c2cc(C(=O)c3c(Cl)ccc(Cl)c3F)c[nH]2)cn1` [Example 51, 4-(3,6-Dichloro-2-fluorobenzoyl)-N-(1-((1-methyl-1H-imidazol-2-yl)methyl)-1H-pyrazol-4-yl)-1H-pyrrole-2-carboxamide], the pIC50 is 7.75.
In the case of `O=C(Nc1cnc(N2CCN(C3CC3)CC2)nc1)c1cc(C(=O)c2c(Cl)ccc(Cl)c2F)c[nH]1` [Example 17, N-(2-(4-cyclopropylpiperazin-1-yl)pyrimidin-5-yl)-4-(3,6-dichloro-2-fluorobenzoyl)-1H-pyrrole-2-carboxamide] it was 5.76; in that of `C=Cc1ccc(F)c(C(=O)c2c[nH]c(C(=O)Nc3cccnc3)c2)c1F` [Example 165, 4-(2,6-Difluoro-3-vinylbenzoyl)-N-(pyridin-3-yl)-1H-pyrrole-2-carboxamide], 5.80.
Regarding `Cc1ccc(F)c(C(=O)c2c[nH]c(C(=O)Nc3cncnc3)c2)c1` [Example 233, 4-(2-Fluoro-5-methylbenzoyl)-N-(pyrimidin-5-yl)-1H-pyrrole-2-carboxamide], the pIC50 was 5.28.
Next, `CCc1ccc(F)c(C(=O)c2c[nH]c(C(=O)NC3CCN(C)CC3)c2)c1F` [Example 164, 4-(3-Ethyl-2,6-difluorobenzoyl)-N-(1-methylpiperidin-4-yl)-1H-pyrrole-2-carboxamide]: 6.21.
On to `O=C(Nc1ccnc(N2CCOCC2)c1)c1cc(C(=O)c2c(Cl)ccc(Cl)c2F)c[nH]1` [Example 38, 4-(3,6-Dichloro-2-fluorobenzoyl)-N-(2-morpholinopyridin-4-yl)-1H-pyrrole-2-carboxamide], for which the negative logarithm of the IC50 (pIC50) was 6.46.
Next, `Cc1cc(NC(=O)c2cc(C(=O)c3c(F)cccc3Br)c[nH]2)cc(C)n1` [Example 135, 4-(2-Bromo-6-fluorobenzoyl)-N-(2,6-dimethylpyridin-4-yl)-1H-pyrrole-2-carboxamide]: 6.18; `O=C(Nc1ccncn1)c1cc(C(=O)c2cccc(Cl)c2Cl)c[nH]1` [Example 131, 4-(2,3-Dichlorobenzoyl)-N-(pyrimidin-4-yl)-1H-pyrrole-2-carboxamide]: 5.58; `COc1ccncc1NC(=O)c1cc(C(=O)c2c(Cl)ccc(Cl)c2F)c[nH]1` [Example 96, 4-(3,6-Dichloro-2-fluorobenzoyl)-N-(4-methoxypyridin-3-yl)-1H-pyrrole-2-carboxamide]: 6.00.
In the case of `C=C(C)c1ccc(F)c(C(=O)c2c[nH]c(C(=O)Nc3cccnc3)c2)c1F` [Example 168, 4-(2,6-Difluoro-3-(prop-1-en-2-yl)benzoyl)-N-(pyridin-3-yl)-1H-pyrrole-2-carboxamide] it was 5.61.
In the case of `CCOc1ccc(Cl)c(C(=O)c2c[nH]c(C(=O)Nc3cnn(C)c3)c2)c1F` [Example 257, 4-(6-Chloro-3-ethoxy-2-fluorobenzoyl)-N-(1-methyl-1H-pyrazol-yl)-1H-pyrrole-2-carboxamide] it was 6.69; in that of `Cc1ncccc1NC(=O)c1cc(C(=O)c2c(F)cccc2Br)c[nH]1` [Example 149, 4-(2-Bromo-6-fluorobenzoyl)-N-(2-methylpyridin-3-yl)-1H-pyrrole-2-carboxamide], 5.62; in that of `O=C(Nc1cncnc1)c1cc(C(=O)c2cc(Cl)ccc2F)c[nH]1` [Example 229, 4-(5-Chloro-2-fluorobenzoyl)-N-(pyrimidin-5-yl)-1H-pyrrole-2-carboxamide], 5.69.
As to `CC(C)(C)OC(=O)N1CCC(NC(=O)c2cc(C(=O)c3c(Cl)ccc(Cl)c3F)c[nH]2)CC1` [Example 2, tert-Butyl 4-(4-(3,6-dichloro-2-fluorobenzoyl)-1H-pyrrole-2-carboxamido)piperidine-1-carboxylate], the pIC50 is 5.87.
For `CCn1cc(NC(=O)c2cc(C(=O)c3c(Cl)ccc(Cl)c3F)c[nH]2)cn1` [Example 46, 4-(3,6-Dichloro-2-fluorobenzoyl)-N-(1-ethyl-1H-pyrazol-4-yl)-1H-pyrrole-2-carboxamide], the pIC50 was 7.18.
In the case of `O=C(Nc1cccnc1)c1cc(C(=O)c2c(Cl)ccc(OC3CCOC3)c2F)c[nH]1` (stereo not shown) [Example 259, 4-(6-Chloro-2-fluoro-3-((tetrahydrofuran-3-yl)oxy)benzoyl)-N-(pyridin-3-yl)-1H-pyrrole-2-carboxamide], the pIC50 was 6.32.
As to `O=C(Nc1cnn(C2CCN(CC(F)(F)F)CC2)c1)c1cc(C(=O)c2c(Cl)ccc(Cl)c2F)c[nH]1` [Example 42, 4-(3,6-Dichloro-2-fluorobenzoyl)-N-(1-(1-(2,2,2-trifluoroethyl)piperidin-4-yl)-1H-pyrazol-4-yl)-1H-pyrrole-2-carboxamide], the pIC50 was 5.45.
In the case of `CS(=O)(=O)N1CCC(NC(=O)c2cc(C(=O)c3c(F)cccc3Cl)c[nH]2)CC1` [Example 8, 4-(2-Chloro-6-fluorobenzoyl)-N-(1-(methylsulfonyl)piperidin-4-yl)-1H-pyrrole-2-carboxamide] it was 6.53; in that of `O=C(Nc1cccnc1)c1cc(C(=O)c2c(Cl)ccc(OC3COC3)c2F)c[nH]1` [Example 272, 4-(6-Chloro-2-fluoro-3-(oxetan-3-yloxy)beruoyl)-N-(pyridin-3-yl)-1H-pyrrole-2-carboxamide], 7.14.
In the case of `O=C(Nc1ccc(F)nc1)c1cc(C(=O)c2c(F)cccc2Cl)c[nH]1` [Example 152, 4-(2-Chloro-6-fluorobenzoyl)-N-(6-fluoropyridin-3-yl)-1H-pyrrole-2-carboxamide] it was 5.83.
Consider `Cc1ccc(F)c(C(=O)c2c[nH]c(C(=O)Nc3cccnc3)c2)c1F` [Example 217, 4-(2.6-Difluoro-3-methylbenzoyl)-N-(pyridin-3-yl)-1H-pyrrole-2-carboxamide], for which the pIC50 is 6.18.
`O=C(Nc1ccc(F)nc1)c1cc(C(=O)c2c(F)cccc2Br)c[nH]1` [Example 153, 4-(2-Bromo-6-fluorobenzoyl)-N-(6-fluoropyridin-3-yl)-1H-pyrrole-2-carboxamide]: the pIC50 is 5.77.

The values are drawn from patent publication US10344017B2, “Pyrrolcarboxamide derivatives for the inhibition of ERK5” (CANCER RESEARCH TECHNOLOGY LIMITED, priority 2014, dated 2019).
